Source: PubChem BioAssay (NCI)
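All cell lines were grown in 96-well plates and treated with compound for 48 hours. TGI: total growth inhibition.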

Experiments:
Assay in all cases: NCI anticancer screen, dose series, 48 h
KM12 colon = system: KM12 colon
PC-3 prostate = system: PC-3 prostate
U251 CNS = system: U251 CNS
UO-31 renal = system: UO-31 renal
IGROV1 ovarian = system: IGROV1 ovarian
LOX IMVI melanoma = system: LOX IMVI melanoma
EKVX NSCLC = system: EKVX NSCLC
NCI-H23 lung = system: NCI-H23 lung
SK-MEL-28 melanoma = system: SK-MEL-28 melanoma
HT29 colon = system: HT29 colon
UACC-257 melanoma = system: UACC-257 melanoma
HCT-15 colon = system: HCT-15 colon
HL-60(TB) leukemia = system: HL-60(TB) leukemia
SF-268 CNS = system: SF-268 CNS
HS 578T breast = system: HS 578T breast
BT-549 breast = system: BT-549 breast

SMILES	TGI (KM12 colon)	TGI (PC-3 prostate)	TGI (U251 CNS)	TGI (UO-31 renal)	TGI (IGROV1 ovarian)	TGI (LOX IMVI melanoma)	TGI (EKVX NSCLC)	TGI (NCI-H23 lung)	TGI (SK-MEL-28 melanoma)	TGI (HT29 colon)	TGI (UACC-257 melanoma)	TGI (HCT-15 colon)	TGI (HL-60(TB) leukemia)	TGI (SF-268 CNS)	TGI (HS 578T breast)	TGI (BT-549 breast)
CC(NC(=O)/C(=C/c1ccccc1)NC(=O)c1ccccc1)C(=O)O (stereo unspecified)	> 100 µM	> 100 µM	> 100 µM	> 100 µM	> 100 µM	> 100 µM	> 100 µM	> 100 µM	> 100 µM	> 100 µM	> 100 µM	> 100 µM	> 100 µM	> 100 µM	> 100 µM	> 100 µM
CN(C)CCCc1cccc2[nH]c3c(c12)CN(C)CC3	> 100 µM	> 100 µM	> 100 µM	> 100 µM	> 100 µM	> 100 µM	> 100 µM	> 100 µM	> 100 µM	> 100 µM	> 100 µM	> 100 µM	> 100 µM	> 100 µM	> 100 µM	> 100 µM
O=C1NC(N2CCOCC2)=N/C1=C\c1ccc(Cl)cc1	> 100 µM	> 100 µM	> 100 µM	> 100 µM	> 100 µM	> 100 µM	> 100 µM	> 100 µM	> 100 µM	> 100 µM	> 100 µM	> 100 µM	> 100 µM	> 100 µM	> 100 µM	> 100 µM
CC(C)C1C(=O)N(c2c(F)c(F)c(F)c(F)c2F)C(=S)N1CCS(=O)c1ccccc1 (stereo unspecified)	32.6 µM	29.3 µM	28 µM	28.6 µM	34.4 µM	28.2 µM	31.3 µM	33.3 µM	30.8 µM	27.8 µM	35.5 µM	31.8 µM	19.2 µM	32.6 µM	62.6 µM	30.9 µM
CNNC1=NS(=O)(=O)c2cc(C#N)c(Cl)cc2S1	> 10 µM	> 10 µM	> 10 µM	3.38 µM	> 10 µM	> 10 µM	> 10 µM	> 10 µM	> 10 µM	> 10 µM	> 10 µM	> 10 µM	> 10 µM	> 10 µM	> 10 µM	> 10 µM
O=c1[nH]c2ccccc2c(=O)n1/N=C/c1ccc(O)cc1	> 100 µM	> 100 µM	> 100 µM	> 100 µM	> 100 µM	> 100 µM	> 100 µM	> 100 µM	> 100 µM	> 100 µM	> 100 µM	> 100 µM	> 100 µM	> 100 µM	74.6 µM	> 100 µM
